# Source: patent publication US8048897B2, “Cyclohexane derivative, prodrug thereof and salt thereof, and therapeutic agent containing the same for diabetes” (Chugai Seiyaku Kabushiki Kaisha, priority 2004, dated 2011)
# Target: T1, human SGLT2 (Homo sapiens, UniProt P31639)
# T1 construct: expressed in transfected cells; host or cells: CHO-K1
# T1 sequence (P31639 1-672): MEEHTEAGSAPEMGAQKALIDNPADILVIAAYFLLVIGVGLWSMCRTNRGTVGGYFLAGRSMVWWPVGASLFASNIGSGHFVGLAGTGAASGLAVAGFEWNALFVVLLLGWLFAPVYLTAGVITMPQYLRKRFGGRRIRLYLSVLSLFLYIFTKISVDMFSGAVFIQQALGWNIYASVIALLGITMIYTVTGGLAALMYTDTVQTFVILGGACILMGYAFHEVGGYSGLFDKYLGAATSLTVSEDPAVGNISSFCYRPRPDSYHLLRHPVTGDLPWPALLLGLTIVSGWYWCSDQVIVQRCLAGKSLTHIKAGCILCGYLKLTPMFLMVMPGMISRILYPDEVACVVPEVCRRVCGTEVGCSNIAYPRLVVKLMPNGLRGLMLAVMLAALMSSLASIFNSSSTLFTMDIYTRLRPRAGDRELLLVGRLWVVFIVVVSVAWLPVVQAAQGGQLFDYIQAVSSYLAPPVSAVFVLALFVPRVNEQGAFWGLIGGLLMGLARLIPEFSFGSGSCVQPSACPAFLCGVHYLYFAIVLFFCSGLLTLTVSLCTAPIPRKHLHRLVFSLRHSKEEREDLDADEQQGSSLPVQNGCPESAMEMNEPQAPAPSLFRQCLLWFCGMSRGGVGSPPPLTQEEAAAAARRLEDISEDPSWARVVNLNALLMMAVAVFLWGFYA
# Assay: Methyl-α-D-glucopyranoside intake inhibition activity in human SGLT2 stable expression CHO cells
# Assay type: cell-based
# Conditions: methyl-α-D-(U-14C)glucopyranoside intake, 37° C., 45 minutes
# Procedure: Test for Confirming Action of Inhibiting Human Na^+-Glucose Co-Transporters (SGLT1 and SGLT2)
# (2) Preparation of Human SGLT2 Expression Vector
# PCR was performed by KOD+DNA polymerase by taking a human kidney-derived cDNA library (a product of Clontech) as a template with the use of a synthesized DNA primer to amplify human SGLT2 cDNA. […] From the proliferated E. coli, a plasmid was purified according to the usual way. By taking this plasmid as a template, PCR was performed by KOD+DNA polymerase with the use of a synthetic DNA primer into which restriction enzyme recognition sites had been introduced to amplify human SGLT2 cDNA (a fragment added with Xho I recognition site on the upstream side and a Hind III recognition site on the downstream side). This amplified fragment was subjected to Xho I and Hind III digestion, and the digested fragments were connected to their recognition sites of the expression vector pcDNA 3.1(−) with the use of the Rapid DNA Ligation kit. The connected expression vector was introduced into E. coli competent cells (DH5α) and proliferated in an ampicillin-containing LB medium to obtain a human SGLT2 expression vector according to the usual way.
# (3) Preparation of Human SGLT1 Stable Expression Cell and Human SGLT2 Stable Expression Cell
# The human SGLT1 expression vector or the human SGLT2 expression vector which was digested with restriction enzyme Pvu I was introduced into CHO-K1 cells with the use of FuGene (a product of Roche Diagonostics). After introduction of the gene, the cells were incubated in a DMEM medium (a product of Gibco) containing penicillin (50 U/mL, a product of Sigma), streptomycin (50 mg/L, a product of Sigma), Geneticin (200 mg/L, a product of Nakalai Tesque) and 20% bovine fetal serum in the presence of 5% CO2 at 37° C. for about three weeks to obtain Genticin-resistant clones. From these clones, cells capable of stably expressing human SGLT1 or the human SGLT2 were selected and obtained by using sodium dependent sugar (methyl-α-D-glucopyranoside) intake activity as an index.
# (4) Measurement of Methyl-α-D-glucopyranoside Intake Inhibition Activity
# The human SGLT1 stable expression CHO cells or the human SGLT2 stable expression CHO cells was seeded in a 96-well plate to a density of 30,000 to 40,000 cells/well and incubated for four to six days. Next, the medium of the culture plate was removed, and a pretreatment buffer (a buffer containing 140 mM of choline chloride, 2 mM of potassium chloride, 1 mM of calcium chloride, 1 mM of magnesium chloride, 10 mM of 2-[4-(2-hydroxyethyl)-1-piperazinyl]ethanesulfonic acid and tris(hydroxymethyl)-aminomethane and having a pH of 7.4) was added in an amount of 150 μL per well and then left to stand at 37° C. for 20 minutes. The pretreatment buffer was removed and the pretreatment buffer was again added in an amount of 50 μL per well and then left to stand at 37° C. for 20 minutes. To 100 mL of a buffer (a buffer containing 140 mM of sodium chloride, 1 mM of potassium chloride, 1 mM of magnesium chloride, 1 mM of methyl-α-D-glucopyranoside, 10 mM of 2-[4-(2-hydroxyethyl)-1-piperazinyl]ethanesulfonic acid and tris(hydroxymethyl)aminomethane and having a pH of 7.4), there was added and mixed 6.3 mL of methyl-α-D-(U-^14C)glucopyranoside (200 mCi/L, a product of Amersham Pharmacia Biotech) to prepare an intake buffer, and a test compound was dissolved in this intake buffer and the resulting solution was used as a buffer for determining inhibition activity. Further, as a control, a test compound-free intake buffer was used. Furthermore, in order to determine a basic intake in the absence of the test compound and sodium, a basic intake buffer containing 140 mM of choline chloride instead of the sodium chloride was prepared in the same manner and used in the determina-tion. […]
row,SMILES,IC50
1,"CCc1ccc(Cc2cc([C@]3(O)C[C@H](CO)[C@@H](O)[C@H](O)[C@H]3O)c(OC)cc2OC)cc1 [Example 69, (1R,2R,3S,4R,5R)-1-[5-(4-Ethylbenzyl)-2,4-dimethoxy-phenyl]-5-(hydroxymethyl)cyclohexane-1,2,3,4-tetraol]",5.1 nM
2,"COc1ccc(Cc2cccc([C@@H]3C[C@H](CO)[C@@H](O)[C@H](O)[C@H]3O)c2)cc1 (single isomer, unassigned) [Example 2]",111 nM
3,"OC[C@H]1C[C@@H](Oc2ccccc2Cc2ccc(C3CC3)cc2)[C@H](O)[C@@H](O)[C@@H]1O [Example 8, [2-(4-Cyclopropylbenzyl)phenyl]-5a-carba-β-D-glucopyranoside]",7 nM
4,"CSc1ccc(Cc2ccccc2O[C@@H]2C[C@H](CO)[C@@H](O)[C@H](O)[C@H]2O)cc1 [Example 11, [2-(4-Methylsulfanylbenzyl)phenyl]-5a-carba-β-D-gluco-pyranoside]",14 nM
5,"OC[C@H]1C[C@@H](Oc2cnccc2Cc2ccc(C3CC3)cc2)[C@H](O)[C@@H](O)[C@@H]1O [Example 42, [4-(4-Cyclopropylbenzyl)pyridin-3-yl]-5a-carba-β-D-gluco-pyranoside]",7.7 nM
6,"Cc1cc(O[C@@H]2C[C@H](CO)[C@@H](O)[C@H](O)[C@H]2O)c(Cc2ccc(C3CC3)cc2)s1 [Example 59, [2-(4-Cyclopropylbenzyl)-5-methylthiophen-3-yl]-5a-carba-β-D-glucopyranoside]",8.9 nM
7,"COc1ccc(Cc2ccc(C)cc2O[C@@H]2C[C@H](CO)[C@@H](O)[C@H](O)[C@H]2O)cc1 [Example 54, [2-(4-Methoxybenzyl)-5-methylphenyl]-5a-carba-β-D-gluco-pyranoside]",14 nM

# The remaining lines, values ahead:
row,IC50,SMILES
1,18 nM,COc1ccc(Cc2c(F)cccc2O[C@@H]2C[C@H](CO)[C@@H](O)[C@H](O)[C@H]2O)cc1 [Example 12]
2,7.1 nM,"OCC1=C[C@@H](Oc2ccccc2Cc2ccc(C3CC3)cc2)[C@H](O)[C@@H](O)[C@@H]1O [Example 62, (1R,2S,3R,6R)-6-[2-(4-Cyclopropylbenzyl)phenoxy]-4-(hydroxymethyl)cyclohex-4-ene-1,2,3-triol]"
3,17 nM,"CCc1ccc(Cc2sccc2O[C@@H]2C[C@H](CO)[C@@H](O)[C@H](O)[C@H]2O)cc1 [Example 55, [2-(4-Ethylbenzyl)thiophen-3-yl]-5a-carba-β-D-gluco-pyranoside]"
4,11 nM,"CCc1ccc(Cc2ccc(OC)c([C@]3(O)C[C@H](CO)[C@@H](O)[C@H](O)[C@H]3O)c2)cc1 [Example 73, (1R,2R,3S,4R,5R)-1-[5-(4-Ethylbenzyl)-2-methoxyphenyl]-5-(hydroxymethyl)cyclohexane-1,2,3,4-tetraol]"
5,31 nM,"CCc1ccc(Cc2ccccc2O[C@@H]2C[C@H](CO)[C@@H](O)[C@H](O)[C@H]2O)cc1 [Example 25, [2-(4-Ethylbenzyl)phenyl]-5a-carba-β-D-glucopyranoside]"
6,7.4 nM,"CCc1ccc(Cc2cc([C@@H]3C[C@H](CO)[C@@H](O)[C@H](O)[C@H]3O)c(OC)cc2OC)cc1 [Example 70, (1R,2R,3S,4S,6R)-4-[5-(4-Ethylbenzyl)-2,4-dimethoxy-phenyl]-6-(hydroxymethyl)cyclohexane-1,2,3-triol]"
7,61 nM,"COc1ccc(Cc2ccccc2O[C@@H]2C[C@H](CO)[C@@H](O)[C@H](O)[C@H]2O)cc1 [Example 1, [2-(4-Methoxybenzyl)phenyl]-5a-carba-β-D-glucopyranoside]"
8,16 nM,"C=Cc1ccc(Cc2ccccc2O[C@@H]2C[C@H](CO)[C@@H](O)[C@H](O)[C@H]2O)cc1 [Example 44, [2-(4-Vinylbenzyl)phenyl]-5a-carba-β-D-glucopyranoside]"
9,6.6 nM,"CCc1ccc(Cc2cccc(C3=C[C@H](CO)[C@@H](O)[C@H](O)[C@H]3O)c2)cc1 [Example 64, (1R,2S,3S,6R)-4-[3-(4-Ethylbenzyl)phenyl]-6-(hydroxy-methyl)cyclohex-4-ene-1,2,3-triol]"
10,18 nM,"CCOc1ccc(Cc2ccc(CC)cc2)cc1[C@@H]1C[C@H](CO)[C@@H](O)[C@H](O)[C@H]1O [Example 68, (1R,2R,3S,4S,6R)-4-[2-Ethoxy-5-(4-ethylbenzyl)phenyl]-6-(hydroxymethyl)cyclohexane-1,2,3-triol]"
